Reference: patent publication EP0403158A2, “Imidazolyl-alkenoic acids” (SMITHKLINE BEECHAM CORPORATION, priority 1989, dated 1990)

Experiments:
[1] = test system: pressor response to exogenous angiotensin II; test: Inhibition of pressor response to angiotensin II in conscious rats; format: in vivo; settings: Rattus norvegicus, i.v., change in mean arterial pressure after intravenous 250 mg/kg angiotensin II, read-out: IC50 (dose of compound needed to produce 50% inhibition of the control response to angiotensin II)
Protocol: (§1) Angiotensin II antagonist activity of the compounds of Formulas (I) and (IA) is assessed by in vitro and in vivo methods. In vitro antagonist activity is determined by the ability of the compounds to compete with ¹²⁵I-angiotensin II for binding to vascular angiotensin II receptors and by their ability to antagonize the contractile response to angiotensin II in the isolated rabbit aorta. In vivo activity is evaluated by the efficacy of the compounds to inhibit the pressor response to exogenous angiotensin II in conscious rats and to lower blood pressure in a rat model of renin dependent hypertension.
Rats are prepared with indwelling femoral arterial and venous catheters and a stomach tube (Gellai et al., Kidney Int. 15:419, 1979). Two to three days following surgery the rats are placed in a restrainer and blood pressure is continuously monitored from the arterial catheter with a pressure transducer and recorded on a polygraph. The change in mean arterial pressure in response to intravenous injections of […] angiotensin II is compared at various time points prior to and following the administration of the compounds intravenously or orally at doses of 3 to 300 mg/kg. The dose of compound needed to produce 50% inhibition of the control response to angiotensin II (IC₅₀) is used to estimate the potency of the compounds. […]

[2] = test system: mean arterial pressure in conscious rats made renin dependent hypertensive; test: Antihypertensive activity in renal artery ligated (renin dependent hypertensive) conscious rats; format: in vivo; settings: Rattus norvegicus, iv, seven to eight days following ligation, read-out: IC30 (dose of compound needed to reduce mean arterial pressure by 30 mm Hg)
Protocol: as §1
The antihypertensive activity of the compounds is measured by their ability to reduce mean arterial pressure in conscious rats made renin dependent hypertensive by ligation of the left renal artery (Cangiano et al., J. Pharmacol. Exp. Ther. 208:310, 1979). Renal artery ligated rats are prepared with indwelling catheters as described above. Seven to eight days following renal artery ligation, the time at which plasma renin levels are highest, the conscious rats are placed in restrainers and mean arterial pressure is continuously recorded prior to and following the administration of the compounds intravenously or orally. The dose of compound needed to reduce mean arterial pressure by 30 mm Hg (IC₃₀) is used as an estimate of potency. […]

**Q.** How did the ED50 [1] turn out when `CCCCc1ncc(/C=C(\Cc2ccccc2)C(=O)O)n1Cc1ccccc1Cl` [(E)-3-[2-n-butyl-1-{(2-chlorophenyl)methyl}-1H-imidazol-5-yl]-2-benzyl-2-propenoic acid] was run?
**A.** 14 mg/kg

**Q.** What about the ED (30 mm Hg) [2] of the same compound?
**A.** 10 mg/kg
